Data taken from patent US8993574B2, “Pyrrole antifungal agents” (F2G Ltd, priority 2008, dated 2015).
Converted amounts (≈) assume the structure as drawn.

How the values were obtained:
Assay type in all cases: cell-based
Aspergillus flavus [1] = assay: MIC, YAG medium; conditions: 24 h at 35° C, MIC banded into grades; for MIC: Aspergillus flavus, 24 h, read-out: MIC grade, A. flavus
Experimental: (§1) Between 1 and 5 mgs of compound were accurately weighed out into a sterile Eppendorf tube. The compound was dissolved in DMSO to give a solution containing 5 mg/mL. Tubes were stored at −20° C. until required.
(§2) On the day of testing thawed solutions were vortex mixed to ensure homogeneity. 30 μL of solution was removed and added to 570 μL of sterile water in a separate sterile Eppendorf. The thoroughly mixed solution was used to prepare a series of doubling dilutions in water, in a deep well plate. Thirteen replicate plates were prepared using a Minitrak by aspirating 20 μL from each well into eleven clear polystyrene 96 well plates.
(§3) Spores of Aspergillus spp. (Aspergillus fumigatus [two strains], Aspergillus terreus [two strains], Aspergillus niger and Aspergillus flavus) were harvested from cultures grown on Sabarauds agar for 5 days, and resuspended in PBS/Tween 80 to approx 1×10^7 cfu/mL. Each organism suspension was diluted in YAG medium (1% glucose, 1% ammonium chloride and 0.5% yeast extract) to 0.5−2×10^4 cfu/mL. 80 μL of an organism suspension was added to each well of the plate containing drug dilutions.
(§4) This produced MIC plates with a drug range 50-0.05 mg/L and organism inocula of 1−2×10^4 cfu/mL for Aspergillus spp. All plates were incubated for 24 h at 35° C. Growth was assessed by monitoring the optical density at 485 nm for each well. The MIC of a compound is the lowest drug concentration that inhibits growth of an organism by >70% compared with a drug free control. MICs are recorded as mg/L. In cases where the MIC of an organism is […] mg/L the MIC is repeated using a concentration range of 0.5-0.0005 mg/L.
(§5) The following organisms were tested: Aspergillus flavus, Aspergillus fumigatus AF293 and AF210, Aspergillus niger, Aspergillus terreus AT4 and AT49, Candida albicans, Candida glabrata, Candida krusei, Candida parapsilosis and Candida tropicalis.

[2] = system: Aspergillus fumigatus AF210; assay: MIC, YAG medium; conditions: 24 h at 35° C, MIC banded into grades; for MIC: Aspergillus fumigatus, read-out: MIC grade, A. fumigatus 210
Experimental: as §1, §2, §3, §4, §5

[3] = system: Aspergillus fumigatus AF293; assay: MIC, YAG medium; conditions: 24 h at 35° C, MIC banded into grades; for MIC: Aspergillus fumigatus, read-out: MIC grade, A. fumigatus
Experimental: as §1, §2, §3, §4, §5

Aspergillus niger [4] = assay: MIC, YAG medium; conditions: 24 h at 35° C, MIC banded into grades; for MIC: Aspergillus niger, read-out: MIC grade, A. niger
Experimental: as §1, §2, §3, §4, §5

Aspergillus terreus AT49 [5] = assay: MIC, YAG medium; conditions: 24 h at 35° C, MIC banded into grades; for MIC: Aspergillus terreus, read-out: MIC grade, A. terreus 49
Experimental: as §1, §2, §3, §4, §5

Aspergillus terreus AT4 [6] = assay: MIC, YAG medium; conditions: 24 h at 35° C, MIC banded into grades; for MIC: Aspergillus terreus, read-out: MIC grade, A. terreus
Experimental: as §1, §2, §3, §4, §5

Aspergillus flavus [7] = assay: MIC, RPMI medium; conditions: MIC banded into grades; for MIC: Aspergillus flavus, read-out: MIC grade, A. flavus
Experimental: as §1, §2
(§6) Assays were also performed in RPMI medium for both Aspergillus spp. (strains described above) and Candida spp. (Candida albicans, Candida glabrata, Candida krusei, Candida parapsilosis and Candida tropicalis). To perform MIC tests in this medium, dilutions of compounds are prepared in microtitre plates as described above. Fungal strains to be tested are grown and harvested in an identical manner to that described above, and each organism suspension was diluted in RPMI medium, containing 2% glucose and 0.135 M MOPS buffer (pH 7.0) to 0.5-2×10^4 cfu/mL, rather than in YAG medium. 80 μL of an organism suspension was added to each well of the plate containing drug dilutions.
(§7) This produced MIC plates with a drug range 50-0.05 mg/L and organism inocula of 1−2×10^4 cfu/mL. All plates were incubated for 24-48 h at 35° C. Growth was assessed by monitoring the optical density at 485 nm for each well. The MIC of a compound is the lowest drug concentration that inhibits growth of an organism by >80% compared with a drug free control.
as §5

[8] = system: Aspergillus fumigatus AF210; assay: MIC, RPMI medium; conditions: for MIC: Aspergillus fumigatus, AF210, MIC banded into grades, read-out: MIC grade, A. fumigatus 210
Experimental: as §1, §2, §6, §7, §5

[9] = system: Aspergillus fumigatus AF293; assay: MIC, RPMI medium; conditions: for MIC: Aspergillus fumigatus, AF293, MIC banded into grades, read-out: MIC grade, A. fumigatus
Experimental: as §1, §2, §6, §7, §5

Aspergillus niger [10] = assay: MIC, RPMI medium; conditions: MIC banded into grades; for MIC: Aspergillus niger, read-out: MIC grade, A. niger
Experimental: as §1, §2, §6, §7, §5

Aspergillus terreus AT49 [11] = assay: MIC, RPMI medium; conditions: for MIC: Aspergillus terreus, AT49, MIC banded into grades, read-out: MIC grade, A. terreus 49
Experimental: as §1, §2, §6, §7, §5

Aspergillus terreus AT4 [12] = assay: MIC, RPMI medium; conditions: for MIC: Aspergillus terreus, AT4, MIC banded into grades, read-out: MIC grade, A. terreus
Experimental: as §1, §2, §6, §7, §5

SMILES	MIC (Aspergillus flavus [1])	MIC [2]	MIC [3]	MIC (Aspergillus niger [4])	MIC (Aspergillus terreus AT49 [5])	MIC (Aspergillus terreus AT4 [6])	MIC (Aspergillus flavus [7])	MIC [8]	MIC [9]	MIC (Aspergillus niger [10])	MIC (Aspergillus terreus AT49 [11])	MIC (Aspergillus terreus AT4 [12])	further results
Cc1cc(C)nc(N2CCN(c3ccc(NC(=O)C(=O)c4[nH]c(C)cc4-c4ccccc4)cc3)CC2)c1 [Example 50, N-{4-[4-(4,6-Dimethyl-pyridin-2-yl)-piperazin-1-yl]-phenyl}-2-(5-methyl-3-phenyl-1H-pyrrol-2-yl)-2-oxo-acetamide]	< 1 µg/mL	< 1 µg/mL	< 1 µg/mL	< 1 µg/mL	< 1 µg/mL	< 1 µg/mL	< 1 µg/mL	< 1 µg/mL	< 1 µg/mL	< 1 µg/mL	< 1 µg/mL	< 1 µg/mL	–
Cc1cc(-c2ccccc2)c(C(=O)C(=O)Nc2cccc3c(N4CCN(C)CC4)cccc23)n1C [Example 49, 2-(1,5-Dimethyl-3-phenyl-1H-pyrrol-2-yl)-N-[5-(4-methyl-piperazin-1-yl)-naphthalen-1-yl]-2-oxo-acetamide]	< 1 µg/mL	1 to 10 µg/mL (≈ 2.14 to 21.4 µM)	1 to 10 µg/mL (≈ 2.14 to 21.4 µM)	> 10 µg/mL	< 1 µg/mL	> 10 µg/mL	1 to 10 µg/mL (≈ 2.14 to 21.4 µM)	> 10 µg/mL	1 to 10 µg/mL (≈ 2.14 to 21.4 µM)	> 10 µg/mL	1 to 10 µg/mL (≈ 2.14 to 21.4 µM)	1 to 10 µg/mL (≈ 2.14 to 21.4 µM)	–
Cc1cc(C)nc(N2CCN(c3ccc(NC(=O)C(=O)c4c(-c5ccco5)cc(C)n4C)cc3)CC2)c1 [Example 12, N-{4-[4-(4,6-Dimethyl-pyridin-2-yl)-piperazin-1-yl]-phenyl}-2-(3-furan-2-yl-1,5-dimethyl-1H-pyrrol-2-yl)-2-oxo-acetamide]	< 1 µg/mL	< 1 µg/mL	< 1 µg/mL	< 1 µg/mL	< 1 µg/mL	< 1 µg/mL	< 1 µg/mL	< 1 µg/mL	< 1 µg/mL	< 1 µg/mL	< 1 µg/mL	< 1 µg/mL	–
Cc1cc(C)nc(N2CCN(c3ccc(NC(=O)C(=O)c4c(-c5ccccc5)cc(C)n4CC(=O)OC(C)C)cc3)CC2)c1 [Example 77, (2-{4-[4-(4,6-Dimethyl-pyridin-2-yl)-piperazin-1-yl]-phenylaminooxalyl}-5-methyl-3-phenyl-pyrrol-1-yl)-acetic acid isopropyl ester]	–	–	–	–	–	–	–	–	–	–	–	–	MIC grade, A. flavus (Aspergillus flavus [1]): 1 (a grade of 1 represents an MIC of greater than 10 mg/L); MIC grade, A. fumigatus 210 [2]: 3 (A grade of 3 represents an MIC of less than 1 mg/L); MIC grade, A. fumigatus [3]: 3 (A grade of 3 represents an MIC of less than 1 mg/L); MIC grade, A. niger (Aspergillus niger [4]): 2 (A grade of 2 represents an MIC of from 1 to 10 mg/L); MIC grade, A. terreus 49 (Aspergillus terreus AT49 [5]): 2 (A grade of 2 represents an MIC of from 1 to 10 mg/L); MIC grade, A. terreus (Aspergillus terreus AT4 [6]): 2 (A grade of 2 represents an MIC of from 1 to 10 mg/L); MIC grade, A. flavus (Aspergillus flavus [7]): 1 (a grade of 1 represents an MIC of greater than 10 mg/L); MIC grade, A. fumigatus 210 ([8]; MIC banded into grades): 2 (A grade of 2 represents an MIC of from 1 to 10 mg/L); MIC grade, A. fumigatus ([9]; MIC banded into grades): 2 (A grade of 2 represents an MIC of from 1 to 10 mg/L); MIC grade, A. niger (Aspergillus niger [10]): 1 (a grade of 1 represents an MIC of greater than 10 mg/L); MIC grade, A. terreus 49 (Aspergillus terreus AT49 [11]; MIC banded into grades): 1 (a grade of 1 represents an MIC of greater than 10 mg/L); MIC grade, A. terreus (Aspergillus terreus AT4 [12]; MIC banded into grades): 1 (a grade of 1 represents an MIC of greater than 10 mg/L)
Cc1cc(C)nc(N2CCN(c3ccc(NC(=O)C(=O)c4c(-c5ccccc5)cc5n4CCOC5)cc3)CC2)c1 [Example 7, N-{4-[4-(4,6-Dimethyl-pyridin-2-yl)-piperazin-1-yl]-phenyl}-2-oxo-2-(7-phenyl-3,4-dihydro-1H-pyrrolo[2,1-c][1,4]oxazin-6-yl)-acetamide]	< 1 µg/mL	< 1 µg/mL	< 1 µg/mL	< 1 µg/mL	< 1 µg/mL	< 1 µg/mL	< 1 µg/mL	< 1 µg/mL	< 1 µg/mL	< 1 µg/mL	< 1 µg/mL	< 1 µg/mL	–

Second part, led by results:

MIC (Aspergillus flavus [1])	MIC [2]	MIC [3]	MIC (Aspergillus niger [4])	MIC (Aspergillus terreus AT49 [5])	MIC (Aspergillus terreus AT4 [6])	MIC (Aspergillus flavus [7])	MIC [8]	MIC [9]	MIC (Aspergillus niger [10])	MIC (Aspergillus terreus AT49 [11])	MIC (Aspergillus terreus AT4 [12])	SMILES	further results
1 to 10 µg/mL (≈ 1.71 to 17.1 µM)	< 1 µg/mL	< 1 µg/mL	< 1 µg/mL	1 to 10 µg/mL (≈ 1.71 to 17.1 µM)	1 to 10 µg/mL (≈ 1.71 to 17.1 µM)	> 10 µg/mL	1 to 10 µg/mL (≈ 1.71 to 17.1 µM)	1 to 10 µg/mL (≈ 1.71 to 17.1 µM)	1 to 10 µg/mL (≈ 1.71 to 17.1 µM)	> 10 µg/mL	> 10 µg/mL	Cc1cc(C)nc(N2CCN(c3ccc(NC(=O)C(=O)c4c(-c5ccccc5)cc(C)n4Cc4cccnc4)cc3)CC2)c1 [Example 93, N-{4-[4-(4,6-Dimethyl-pyridin-2-yl)-piperazin-1-yl]-phenyl}-2-(5-methyl-3-phenyl-1-pyridin-3-ylmethyl-1H-pyrrol-2-yl)-2-oxo-acetamide]	–
< 1 µg/mL	1 to 10 µg/mL (≈ 2.71 to 27.1 µM)	1 to 10 µg/mL (≈ 2.71 to 27.1 µM)	> 10 µg/mL	1 to 10 µg/mL (≈ 2.71 to 27.1 µM)	1 to 10 µg/mL (≈ 2.71 to 27.1 µM)	1 to 10 µg/mL (≈ 2.71 to 27.1 µM)	> 10 µg/mL	> 10 µg/mL	> 10 µg/mL	> 10 µg/mL	1 to 10 µg/mL (≈ 2.71 to 27.1 µM)	Cc1cc(-c2ccccc2)c(C(=O)C(=O)Nc2cccc3ccncc23)n1C [Example 43, 2-(1,5-Dimethyl-3-phenyl-1H-pyrrol-2-yl)-N-isoquinolin-8-yl-2-oxo-acetamide]	–
< 1 µg/mL	< 1 µg/mL	< 1 µg/mL	< 1 µg/mL	< 1 µg/mL	< 1 µg/mL	1 to 10 µg/mL (≈ 1.81 to 18.1 µM)	1 to 10 µg/mL (≈ 1.81 to 18.1 µM)	1 to 10 µg/mL (≈ 1.81 to 18.1 µM)	1 to 10 µg/mL (≈ 1.81 to 18.1 µM)	1 to 10 µg/mL (≈ 1.81 to 18.1 µM)	1 to 10 µg/mL (≈ 1.81 to 18.1 µM)	CCc1cc(-c2ccccc2)c(C(=O)C(=O)Nc2ccc(N3CCN(c4cc(C)cc(C)n4)CC3)cc2)n1COC [Example 125, N-{4-[4-(4,6-Dimethyl-pyridin-2-yl)-piperazin-1-yl]-phenyl}-2-(5-ethyl-1-methoxymethyl-3-phenyl-1H-pyrrol-2-yl)-2-oxo-acetamide]	–
1 to 10 µg/mL (≈ 1.76 to 17.6 µM)	< 1 µg/mL	< 1 µg/mL	1 to 10 µg/mL (≈ 1.76 to 17.6 µM)	< 1 µg/mL	< 1 µg/mL	> 10 µg/mL	1 to 10 µg/mL (≈ 1.76 to 17.6 µM)	< 1 µg/mL	1 to 10 µg/mL (≈ 1.76 to 17.6 µM)	1 to 10 µg/mL (≈ 1.76 to 17.6 µM)	1 to 10 µg/mL (≈ 1.76 to 17.6 µM)	COCCn1c(C)c(F)c(-c2ccccc2)c1C(=O)C(=O)Nc1ccc(N2CCN(c3cc(C)cc(C)n3)CC2)cc1 [Example 94, N-{4-[4-(4,6-Dimethyl-pyridin-2-yl)-piperazin-1-yl]-phenyl}-2-[4-fluoro-1-(2-methoxy-ethyl)-5-methyl-3-phenyl-1H-pyrrol-2-yl]-2-oxo-acetamide]	–
< 1 µg/mL	< 1 µg/mL	< 1 µg/mL	< 1 µg/mL	< 1 µg/mL	< 1 µg/mL	> 10 µg/mL	< 1 µg/mL	< 1 µg/mL	< 1 µg/mL	< 1 µg/mL	< 1 µg/mL	CCOCn1c(C)cc(-c2ccccc2)c1C(=O)C(=O)Nc1ccc(N2CCN(c3cc(C)cc(C)n3)CC2)cc1 [Example 132, N-{4-[4-(4,6-Dimethyl-pyridin-2-yl)-piperazin-1-yl]-phenyl}-2-(1-ethoxymethyl-5-methyl-3-phenyl-1H-pyrrol-2-yl)-2-oxo-acetamide]	–
